Experimental data published in patent US20240025856A1, “1,2,3,4-TETRAHYDROQUINOLINE DERIVATIVES AS INHIBITORS OF THE YAP/TAZ-TEAD ACTIVATION FOR TREATING CANCER” (KATHOLIEKE UNIVERSITEIT LEUVEN, priority 2020, published 2024).

What follows are compounds tested on YAP/TAZ-TEAD transcription (assay: Reporter gene assay for measuring the inhibition of YAP/TAZ-TEAD transcription (TEAD-responsive element luciferase reporter in Hek293T cells)). Conditions: Hek293T cells transiently transfected with TEAD-responsive element luciferase reporter; 24 hours incubation.
Assay type: cell-based
Experimental: Hek293T cells are cultured in DMEM supplemented with 10% fetal bovine serum, Sodium pyruvate, Sodium bicarbonate, L-glutamine. The cells are harvested and transiently transfected with TEAD-responsive element luciferase reporter. Transfected cells are plated in 384-wells plate containing pre-diluted compounds. After 24 hours incubation at 37° C./5% CO2, assay plates were cooled down to RT and levelled to an equal volume per well, prior to the addition of 25 uL luciferase substrate SteadyLite (Perkin Elmer)/well. The plate was shaken for 10 min at 600 rpm, centrifuged for 1 min at 500 rpm and measured with an Envision reader (PerkinElmer). The amount of relative light units produced by the TEAD reporter is used to calculated percent of inhibition. The percent of reporter inhibition was calculated in the presence of a positive control inhibitor (100% inhibition) versus a condition with the presence of the vehicle basal activity of the reporter (0% inhibition). The ability of a test compound to inhibit this activity was determined as: Percentage inhibition=[[…]((RLU determined in the presence of vehicle−RLU determined for sample with test compound present) divided by (RLU determined in the presence of vehicle−RLU determined for sample with positive control inhibitor))]*100
The activities of example compounds tested are depicted in the table below. The activity ranges A, B and C refer to IC50 values in the reporter gene assay as follows: “A”: IC50<1 μM; “B”: 1 μM≤IC50≤20 μM and “C”: IC50>20 μM; NT=not tested.

Question: OCCCNC1Cc2ccccc2N(c2ccc(C(F)(F)F)cc2)C1 (single isomer, unassigned) [045-En2, (R)- or (S)-3-((1-(4-(trifluoromethyl)phenyl)-1,2,3,4-tetrahydroquinolin-3-yl)amino)propan-1-ol] was tested. Which IC50 did it give?
Answer: 1000 to 20000 nM

Same assay, conditions: Homo sapiens, HEK-293T, 24 h, Hek293T cells transiently transfected with TEAD-responsive element luciferase reporter; 24 hours incubation

Question: With C=CC(=O)NC1Cc2ccccc2N(c2cccc(Cl)c2)C1 (stereo not drawn) [compound 032, N-(1-(3-chlorophenyl)-1,2,3,4-tetrahydroquinolin-3-yl)acrylamide] as the compound, how does the IC50 read?
Answer: < 1000 nM

Question: O=C(O)CCNC1Cc2ccccc2N(c2ccc(C(F)(F)F)cc2)C1 (stereo not drawn) [compound 046, 3-((1-(4-(trifluoromethyl)phenyl)-1,2,3,4-tetrahydroquinolin-3-yl)amino)propanoic acid] was tested. Which IC50 did it give?
Answer: < 1000 nM

Question: With CS(=O)(=O)NCC1Cc2ccccc2N(c2ccc(C(F)(F)F)cc2)C1 (stereo not drawn) [compound 121, N-((1-(4-(trifluoromethyl)phenyl)-1,2,3,4-tetrahydroquinolin-3-yl)methyl)methanesulfonamide] as the compound, how does the IC50 read?
Answer: < 1000 nM

Question: For C=CC(=O)NC1Cc2c(Cc3cccc(C#N)c3)cccc2N(c2ccc(C(F)(F)F)cc2)C1 (stereo not drawn) [compound 062, N-(5-(3-cyanobenzyl)-1-(4-(trifluoromethyl)phenyl)-1,2,3,4-tetrahydroquinolin-3-yl)acrylamide], which IC50 is on record?
Answer: < 1000 nM

Question: How did the IC50 turn out when CS(=O)(=O)NC1Cc2ccccc2N(c2ccc(C(F)(F)F)cc2)C1 (stereo not drawn) [compound 047, N-(1-(4-(trifluoromethyl)phenyl)-1,2,3,4-tetrahydroquinolin-3-yl)methanesulfonamide] was run?
Answer: < 1000 nM

Question: With C=CC(=O)NCC1Cc2ccccc2N(c2cccc(C(F)(F)F)c2)C1 (stereo not drawn) [compound 086, N-((1-(3-(trifluoromethyl)phenyl)-1,2,3,4-tetrahydroquinolin-3-yl)methyl)acrylamide] as the compound, how does the IC50 read?
Answer: < 1000 nM

Question: C=CC(=O)NC1Cc2ccccc2N(c2ccc3cc[nH]c3c2)C1 (stereo not drawn) [compound 017, N-(1-(1H-indol-6-yl)-1,2,3,4-tetrahydroquinolin-3-yl)acrylamide] was tested. Which IC50 did it give?
Answer: < 1000 nM

Question: Which IC50 does the source give for C=CC(=O)NCC1Cc2ccccc2N(c2ccc(C(F)(F)F)cc2)C1 (single isomer, unassigned) [084-En2, N-((1-(4-(trifluoromethyl)phenyl)-1,2,3,4-tetrahydroquinolin-3-yl)methyl)acrylamide] here?
Answer: < 1000 nM

Question: With C=CC(=O)NC1Cc2ccccc2N(c2ccc(C(C)C)cc2)C1 (stereo not drawn) [compound 004, N-(1-(4-isopropylphenyl)-1,2,3,4-tetrahydroquinolin-3-yl)acrylamide] as the compound, how does the IC50 read?
Answer: < 1000 nM

Question: For CCC(=O)NC1Cc2c(Nc3cccnc3)cccc2N(c2ccc(C(F)(F)F)cc2)C1 (stereo not drawn) [compound 072, N-(5-(pyridin-3-ylamino)-1-(4-(trifluoromethyl)phenyl)-1,2,3,4-tetrahydroquinolin-3-yl)propionamide], which IC50 is on record?
Answer: 1000 to 20000 nM

Question: For C=CC(=O)NCC1Cc2ccccc2N(c2ccc(S(F)(F)(F)(F)F)cc2)C1 (stereo not drawn) [compound 117, N-((1-(4-(pentafluoro-λ^6-sulfaneyl)phenyl)-1,2,3,4-tetrahydroquinolin-3-yl)methyl)acrylamide], which IC50 is on record?
Answer: < 1000 nM

Question: For CN(C)C/C=C/C(=O)NC1Cc2ccccc2N(c2ccc(C(F)(F)F)cc2)C1 (stereo not drawn) [compound 041, (E)-4-(dimethylamino)-N-(1-(4-(trifluoromethyl)phenyl)-1,2,3,4-tetrahydroquinolin-3-yl)but-2-enamide], which IC50 is on record?
Answer: 1000 to 20000 nM

Question: C=CC(=O)NC1Cc2ccccc2N(c2cccc(C(C)C)c2)C1 (stereo not drawn) [compound 005, N-(1-(3-isopropylphenyl)-1,2,3,4-tetrahydroquinolin-3-yl)acrylamide] was tested. Which IC50 did it give?
Answer: < 1000 nM

Question: Which IC50 does the source give for O=S1(=O)CCN1CC1Cc2ccccc2N(c2ccc(C(F)(F)F)cc2)C1 (stereo not drawn) [compound 123, 2-((1-(4-(trifluoromethyl)phenyl)-1,2,3,4-tetrahydroquinolin-3-yl)methyl)-1,2-thiazetidine-1,1-dioxide] here?
Answer: < 1000 nM

Question: Which IC50 does the source give for C=CC(=O)NC1Cc2c(-c3nnn[nH]3)cccc2N(c2ccc(C(F)(F)F)cc2)C1 (stereo not drawn) [compound 137, N-(5-(1H-tetrazol-5-yl)-1-(4-(trifluoromethyl)phenyl)-1,2,3,4-tetrahydroquinolin-3-yl)acrylamide] here?
Answer: > 20000 nM

Question: How did the IC50 turn out when CCC(=O)NC1Cc2c(Cc3cccnc3)cccc2N(c2ccc(C(F)(F)F)cc2)C1 (stereo not drawn) [compound 061, N-(5-(pyridin-3-ylmethyl)-1-(4-(trifluoromethyl)phenyl)-1,2,3,4-tetrahydroquinolin-3-yl)propionamide] was run?
Answer: 1000 to 20000 nM

Question: For C=CC(=O)NCC1Cc2ccccc2N([C@H]2CC[C@@H](C(F)(F)F)CC2)C1 (stereo partly drawn) [compound 144, cis-N-((1-(4-(trifluoromethyl)cyclohexyl)-1,2,3,4-tetrahydroquinolin-3-yl)methyl)acrylamide], which IC50 is on record?
Answer: < 1000 nM

Question: For C=CC(=O)NCC1Cc2ccccc2N(c2ccc(C(F)(F)F)c(F)c2)C1 (stereo not drawn) [compound 112, N-((1-(3-fluoro-4-(trifluoromethyl)phenyl)-1,2,3,4-tetrahydroquinolin-3-yl)methyl)acrylamide], which IC50 is on record?
Answer: < 1000 nM

Question: How did the IC50 turn out when C=CC(=O)NCC1Cc2ccccc2N(Cc2ccccc2)C1 (stereo not drawn) [compound 176, N-((1-benzyl-1,2,3,4-tetrahydroquinolin-3-yl)methyl)acrylamide] was run?
Answer: < 1000 nM

Question: How did the IC50 turn out when C=CC(=O)NC1Cc2cc(C)ccc2N(c2ccc(C(F)(F)F)cc2)C1 (stereo not drawn) [compound 065, N-(6-methyl-1-(4-(trifluoromethyl)phenyl)-1,2,3,4-tetrahydroquinolin-3-yl)acrylamide] was run?
Answer: < 1000 nM

Question: How did the IC50 turn out when C=CC(=O)NCC1Cc2ccccc2N(c2cc(F)ccc2F)C1 (stereo not drawn) [compound 110, N-((1-(2,5-difluorophenyl)-1,2,3,4-tetrahydroquinolin-3-yl)methyl)acrylamide] was run?
Answer: < 1000 nM

Question: N#CCNCC1Cc2ccccc2N(c2ccc(C(F)(F)F)cc2)C1 (stereo not drawn) [compound 127, 2-(((1-(4-(trifluoromethyl)phenyl)-1,2,3,4-tetrahydroquinolin-3-yl)methyl)amino)acetonitrile] was tested. Which IC50 did it give?
Answer: < 1000 nM

Question: O=S1(=O)CCN1C1Cc2ccccc2N(c2ccc(C(F)(F)F)cc2)C1 (stereo not drawn) [compound 050, 2-(1-(4-(trifluoromethyl)phenyl)-1,2,3,4-tetrahydroquinolin-3-yl)-1,2-thiazetidine-1,1-dioxide] was tested. Which IC50 did it give?
Answer: 1000 to 20000 nM

Question: Which IC50 does the source give for CC(=O)NC/C=C/C(=O)NCC1Cc2ccccc2N(c2ccc(C(F)(F)F)cc2)C1 (stereo not drawn) [Cpd. No. 193, (E)-4-acetamido-N-((1-(4-(trifluoromethyl)phenyl)-1,2,3,4-tetrahydroquinolin-3-yl)methyl)but-2-enamide] here?
Answer: < 1000 nM

Question: C=CC(=O)NC1Cc2ccccc2N(c2ccc(F)c(F)c2)C1 (stereo not drawn) [compound 018, N-(1-(3,4-difluorophenyl)-1,2,3,4-tetrahydroquinolin-3-yl)acrylamide] was tested. Which IC50 did it give?
Answer: < 1000 nM

Question: How did the IC50 turn out when C=CC(=O)NC1Cc2nc(OC)ccc2N(c2ccc(C(F)(F)F)cc2)C1 (stereo not drawn) [Cpd. No. 141, N-(6-methoxy-1-(4-(trifluoromethyl)phenyl)-1,2,3,4-tetrahydro-1,5-naphthyridin-3-yl)acrylamide] was run?
Answer: < 1000 nM

Question: For C=CC(=O)NCC1Cc2ccccc2N(c2ccc(OC(F)F)cc2)C1 (stereo not drawn) [compound 107, N-((1-(4-(difluoromethoxy)phenyl)-1,2,3,4-tetrahydroquinolin-3-yl)methyl)acrylamide], which IC50 is on record?
Answer: < 1000 nM

Question: Which IC50 does the source give for C=CC(=O)NCC1Cc2ccccc2N(c2ccc3cc[nH]c3c2)C1 (stereo not drawn) [compound 104, N-((1-(1H-indol-6-yl)-1,2,3,4-tetrahydroquinolin-3-yl)methyl)acrylamide] here?
Answer: < 1000 nM

Question: How did the IC50 turn out when N#CC1CN(C2Cc3ccccc3N(c3ccc(C(F)(F)F)cc3)C2)C1=O (stereo not drawn) [compound 042, 2-oxo-1-(1-(4-(trifluoromethyl)phenyl)-1,2,3,4-tetrahydroquinolin-3-yl)azetidine-3-carbonitrile] was run?
Answer: 1000 to 20000 nM

Question: For C=CC(=O)NCC1CCc2ccccc2N1Cc1ccc(C(F)(F)F)cc1 (stereo not drawn) [compound 189, N-((1-(4-(trifluoromethyl)benzyl)-1,2,3,4-tetrahydroquinolin-2-yl)methyl)acrylamide], which IC50 is on record?
Answer: < 1000 nM

Question: How did the IC50 turn out when CCC(=O)NC1Cc2ccccc2N(c2ccc(C(F)(F)F)cc2)C1 (stereo not drawn) [compound 037, N-(1-(4-(trifluoromethyl)phenyl)-1,2,3,4-tetrahydroquinolin-3-yl)propionamide] was run?
Answer: 1000 to 20000 nM

Question: With C=CC(=O)NC1Cc2ccccc2N(c2cccc(-c3ccccc3)c2)C1 (stereo not drawn) [compound 009, N-(1-([1,1′-biphenyl]-3-yl)-1,2,3,4-tetrahydroquinolin-3-yl)acrylamide] as the compound, how does the IC50 read?
Answer: 1000 to 20000 nM

Question: For N#CCC(=O)NCC1Cc2ccccc2N(c2ccc(C(F)(F)F)cc2)C1 (stereo not drawn) [compound 125, 2-cyano-N-((1-(4-(trifluoromethyl)phenyl)-1,2,3,4-tetrahydroquinolin-3-yl)methyl)acetamide], which IC50 is on record?
Answer: < 1000 nM

Question: For CC(C)=CC(=O)NC1Cc2ccccc2N(c2ccc(C(F)(F)F)cc2)C1 (stereo not drawn) [compound 038, 3-methyl-N-(1-(4-(trifluoromethyl)phenyl)-1,2,3,4-tetrahydroquinolin-3-yl)but-2-enamide], which IC50 is on record?
Answer: 1000 to 20000 nM

Question: How did the IC50 turn out when C=CC(=O)NC1Cc2c(C(=O)NS(C)(=O)=O)cccc2N(c2ccc(C(F)(F)F)cc2)C1 (stereo not drawn) [compound 160, 3-acrylamido-N-(methylsulfonyl)-1-(4-(trifluoromethyl)phenyl)-1,2,3,4-tetrahydroquinoline-5-carboxamide] was run?
Answer: > 20000 nM
